Laboratory results: ChEMBL document CHEMBL1671742, “Overexpression of the adeB gene in clinical isolates of tigecycline-nonsusceptible Acinetobacter baumannii without insertion mutations in adeRS” (Antimicrob Agents Chemother, 2010)
Values after ≈ are worked out from the molar mass of the structure shown.

Assays:
[1] = tested on: Acinetobacter baumannii; experiment: Antibacterial activity against intI1-positive tigecycline-resistant Acinetobacter baumannii AB096 with PFGE subgroup B1 containing carbapenemase OXA-23 and OXA-51 by Etest; format: functional
[2] = tested on: Acinetobacter baumannii; experiment: Antibacterial activity against intI1-positive tigecycline-resistant Acinetobacter baumannii AB097 with PFGE subgroup B1 containing carbapenemase OXA-23 and OXA-51 by Etest; format: functional
[3] = tested on: Acinetobacter baumannii; experiment: Antibacterial activity against intI1-positive tigecycline-intermediate Acinetobacter baumannii AB127 with PFGE subgroup I containing carbapenemase OXA-23 and OXA-51 by Etest; format: functional
[4] = tested on: Acinetobacter baumannii; experiment: Antibacterial activity against intI1-positive tigecycline-intermediate Acinetobacter baumannii AB099 with PFGE subgroup H containing carbapenemase OXA-23 and OXA-51 by Etest; format: functional
[5] = tested on: Acinetobacter baumannii; experiment: Antibacterial activity against intI1-positive tigecycline-resistant Acinetobacter baumannii AB125 with PFGE subgroup A1 containing carbapenemase OXA-23 and OXA-51 by Etest; format: functional
[6] = tested on: Acinetobacter baumannii; experiment: Antibacterial activity against intI1-positive tigecycline-resistant Acinetobacter baumannii AB134 with PFGE subgroup A2 containing carbapenemase OXA-23 and OXA-51 by Etest; format: functional
[7] = tested on: Acinetobacter baumannii; experiment: Antibacterial activity against intI1-positive tigecycline-susceptible Acinetobacter baumannii AB039 with PFGE subgroup B1 containing carbapenemase OXA-23 and OXA-51 by Etest; format: functional
[8] = tested on: Acinetobacter baumannii; experiment: Antibacterial activity against intI1-positive tigecycline-resistant Acinetobacter baumannii AB118 with PFGE subgroup B2 containing carbapenemase OXA-23 and OXA-51 by Etest; format: functional
[9] = tested on: Acinetobacter baumannii; experiment: Antibacterial activity against intI1-positive tigecycline-susceptible Acinetobacter baumannii AB095 with PFGE subgroup E containing carbapenemase OXA-23 and OXA-51 by Etest; format: functional
[10] = tested on: Acinetobacter baumannii; experiment: Antibacterial activity against intI1-positive tigecycline-resistant Acinetobacter baumannii AB173 with PFGE subgroup B1 containing carbapenemase OXA-23 and OXA-51 by Etest; format: functional
[11] = tested on: Acinetobacter baumannii; experiment: Antibacterial activity against intI1-positive tigecycline-intermediate Acinetobacter baumannii AB166 with PFGE subgroup A3 containing carbapenemase OXA-51 by Etest; format: functional
[12] = tested on: Acinetobacter baumannii; experiment: Antibacterial activity against intI1-positive tigecycline-susceptible Acinetobacter baumannii AB110 with PFGE subgroup C containing carbapenemase OXA-51 by Etest; format: functional
[13] = tested on: Acinetobacter baumannii; experiment: Antibacterial activity against intI1-positive tigecycline-resistant Acinetobacter baumannii AB106 with PFGE subgroup B1 containing carbapenemase OXA-23 and OXA-51 by Etest; format: functional
[14] = tested on: Acinetobacter baumannii; experiment: Antibacterial activity against intI1-negative tigecycline-intermediate Acinetobacter baumannii AB098 with PFGE subgroup F containing carbapenemase OXA-23 and OXA-51 by Etest; format: functional
[15] = tested on: Acinetobacter baumannii; experiment: Antibacterial activity against intI1-positive tigecycline-resistant Acinetobacter baumannii AB113 with PFGE subgroup B1 containing carbapenemase OXA-23 and OXA-51 by Etest; format: functional
[16] = tested on: Acinetobacter baumannii; experiment: Antibacterial activity against intI1-positive tigecycline-susceptible Acinetobacter baumannii AB018 with PFGE subgroup G containing carbapenemase OXA-58 and OXA-51 by Etest; format: functional
[17] = tested on: Acinetobacter baumannii; experiment: Antibacterial activity against intI1-positive tigecycline-resistant Acinetobacter baumannii AB168 with PFGE subgroup A1 containing carbapenemase OXA-23 and OXA-51 by Etest; format: functional
[18] = tested on: Serum; experiment: Steady state drug concentration in human serum; format: ADME, cell-free
[19] = tested on: Acinetobacter baumannii; experiment: Antibacterial activity against intI1-positive tigecycline-susceptible Acinetobacter baumannii AB039 with PFGE subgroup B1 containing carbapenemase OXA-23 and OXA-51 by Etest in presence of 64 mg/liter 1-(1-naphthylmethyl)-piperazine; format: functional
[20] = tested on: Acinetobacter baumannii; experiment: Antibacterial activity against intI1-positive tigecycline-susceptible Acinetobacter baumannii AB018 with PFGE subgroup G containing carbapenemase OXA-58 and OXA-51 by Etest in presence of 64 mg/liter 1-(1-naphthylmethyl)-piperazine; format: functional
[21] = tested on: Acinetobacter baumannii; experiment: Antibacterial activity against Multidrug-resistant Acinetobacter baumannii by broth microdilution method; format: functional
[22] = tested on: Acinetobacter baumannii; experiment: Antibacterial activity against intI1-positive tigecycline-resistant Acinetobacter baumannii AB173 with PFGE subgroup B1 containing carbapenemase OXA-23 and OXA-51 by Etest in presence of 64 mg/liter 1-(1-naphthylmethyl)-piperazine; format: functional
[23] = tested on: Acinetobacter baumannii; experiment: Antibacterial activity against intI1-positive tigecycline-intermediate Acinetobacter baumannii AB099 with PFGE subgroup H containing carbapenemase OXA-23 and OXA-51 by Etest in presence of 64 mg/liter 1-(1-naphthylmethyl)-piperazine; format: functional
[24] = tested on: Acinetobacter baumannii; experiment: Antibacterial activity against intI1-positive tigecycline-resistant Acinetobacter baumannii AB118 with PFGE subgroup B2 containing carbapenemase OXA-23 and OXA-51 by Etest in presence of 64 mg/liter 1-(1-naphthylmethyl)-piperazine; format: functional
[25] = tested on: Acinetobacter baumannii; experiment: Antibacterial activity against intI1-positive tigecycline-susceptible Acinetobacter baumannii AB095 with PFGE subgroup E containing carbapenemase OXA-23 and OXA-51 by Etest in presence of 64 mg/liter 1-(1-naphthylmethyl)-piperazine; format: functional
[26] = tested on: Acinetobacter baumannii; experiment: Antibacterial activity against intI1-positive tigecycline-resistant Acinetobacter baumannii AB168 with PFGE subgroup A1 containing carbapenemase OXA-23 and OXA-51 by Etest in presence of 64 mg/liter 1-(1-naphthylmethyl)-piperazine; format: functional
[27] = tested on: Acinetobacter baumannii; experiment: Antibacterial activity against intI1-positive tigecycline-resistant Acinetobacter baumannii AB125 with PFGE subgroup A1 containing carbapenemase OXA-23 and OXA-51 by Etest in presence of 64 mg/liter 1-(1-naphthylmethyl)-piperazine; format: functional
[28] = tested on: Acinetobacter baumannii; experiment: Antibacterial activity against intI1-positive tigecycline-intermediate Acinetobacter baumannii AB127 with PFGE subgroup I containing carbapenemase OXA-23 and OXA-51 by Etest in presence of 64 mg/liter 1-(1-naphthylmethyl)-piperazine; format: functional
[29] = tested on: Acinetobacter baumannii; experiment: Antibacterial activity against intI1-positive tigecycline-resistant Acinetobacter baumannii AB134 with PFGE subgroup A2 containing carbapenemase OXA-23 and OXA-51 by Etest in presence of 64 mg/liter 1-(1-naphthylmethyl)-piperazine; format: functional
[30] = tested on: Acinetobacter baumannii; experiment: Antibacterial activity against intI1-positive tigecycline-resistant Acinetobacter baumannii AB097 with PFGE subgroup B1 containing carbapenemase OXA-23 and OXA-51 by Etest in presence of 64 mg/liter 1-(1-naphthylmethyl)-piperazine; format: functional
[31] = tested on: Acinetobacter baumannii; experiment: Antibacterial activity against intI1-positive tigecycline-resistant Acinetobacter baumannii AB096 with PFGE subgroup B1 containing carbapenemase OXA-23 and OXA-51 by Etest in presence of 64 mg/liter 1-(1-naphthylmethyl)-piperazine; format: functional
[32] = tested on: Acinetobacter baumannii; experiment: Antibacterial activity against Multidrug-resistant Acinetobacter baumannii clinical isolate by broth microdilution method; format: functional
[33] = tested on: Acinetobacter baumannii; experiment: Antibacterial activity against intI1-positive tigecycline-resistant Acinetobacter baumannii AB113 with PFGE subgroup B1 containing carbapenemase OXA-23 and OXA-51 by Etest in presence of 64 mg/liter 1-(1-naphthylmethyl)-piperazine; format: functional
[34] = tested on: Acinetobacter baumannii; experiment: Antibacterial activity against intI1-negative tigecycline-intermediate Acinetobacter baumannii AB098 with PFGE subgroup F containing carbapenemase OXA-23 and OXA-51 by Etest in presence of 64 mg/liter 1-(1-naphthylmethyl)-piperazine; format: functional
[35] = tested on: Acinetobacter baumannii; experiment: Antibacterial activity against intI1-positive tigecycline-intermediate Acinetobacter baumannii AB166 with PFGE subgroup A3 containing carbapenemase OXA-51 by Etest in presence of 64 mg/liter 1-(1-naphthylmethyl)-piperazine; format: functional
[36] = tested on: Acinetobacter baumannii; experiment: Antibacterial activity against intI1-positive tigecycline-resistant Acinetobacter baumannii AB106 with PFGE subgroup B1 containing carbapenemase OXA-23 and OXA-51 by Etest in presence of 64 mg/liter 1-(1-naphthylmethyl)-piperazine; format: functional
[37] = tested on: Acinetobacter baumannii; experiment: Antibacterial activity against intI1-positive tigecycline-susceptible Acinetobacter baumannii AB110 with PFGE subgroup C containing carbapenemase OXA-51 by Etest in presence of 64 mg/liter 1-(1-naphthylmethyl)-piperazine; format: functional

For `C[C@@H](O)[C@H]1C(=O)N2C(C(=O)O)=C(SCCNC=N)C[C@H]12` [IMIPENEM ANHYDROUS], the MIC [1] was > 32 µg/mL, the MIC [2] was > 32 µg/mL and the MIC [3] was 32 µg/mL (≈ 107 µM). The MIC [4] was > 32 µg/mL, the MIC [5] was > 32 µg/mL and the MIC [6] was > 32 µg/mL. The MIC [7] was > 32 µg/mL, the MIC [8] was > 32 µg/mL and the MIC [9] was 32 µg/mL (≈ 107 µM). It also gave an MIC [10] of 32 µg/mL (≈ 107 µM), an MIC [11] of 6 µg/mL (≈ 20 µM) and an MIC [12] of 1.5 µg/mL (≈ 5.01 µM). For the same molecule, the MIC [13] was > 32 µg/mL, the MIC [14] was > 32 µg/mL and the MIC [15] was 32 µg/mL (≈ 107 µM). The MIC [16] was 8 µg/mL (≈ 26.7 µM) and the MIC [17] was > 32 µg/mL.
For `CN(C)c1cc(NC(=O)CNC(C)(C)C)c(O)c2c1C[C@H]1C[C@H]3[C@H](N(C)C)C(O)=C(C(N)=O)C(=O)[C@@]3(O)C(O)=C1C2=O` [TIGECYCLINE], the Css [18] was 630 ng/mL, the MIC [19] was 4 µg/mL and the MIC [1] was 16 µg/mL (≈ 27.3 µM). It also gave an MIC [20] of 2 µg/mL, an MIC [2] of 12 µg/mL (≈ 20.5 µM) and an MIC [3] of 4 µg/mL (≈ 6.83 µM). The MIC50 [21] was 2 µg/mL (≈ 3.41 µM), the MIC90 [21] was 4 µg/mL (≈ 6.83 µM) and the MIC [22] was 4 µg/mL. The MIC [23] was 4 µg/mL, the MIC [4] was 6 µg/mL (≈ 10.2 µM) and the MIC [24] was 6 µg/mL. It also gave an MIC [25] of 3 µg/mL, an MIC [26] of 4 µg/mL and an MIC [5] of 8 µg/mL (≈ 13.7 µM). For the same molecule, the MIC [27] was 8 µg/mL, the MIC [28] was 4 µg/mL and the MIC [29] was 3 µg/mL. For the same molecule, the MIC [6] was 8 µg/mL (≈ 13.7 µM), the MIC [30] was 4 µg/mL and the MIC [7] was 2 µg/mL (≈ 3.41 µM). It also gave an MIC [8] of 8 µg/mL (≈ 13.7 µM), an MIC [9] of 2 µg/mL (≈ 3.41 µM) and an MIC [10] of 8 µg/mL (≈ 13.7 µM). The MIC [11] was 4 µg/mL (≈ 6.83 µM), the MIC [12] was 2 µg/mL (≈ 3.41 µM) and the MIC [31] was 8 µg/mL. The MIC [13] was 8 µg/mL (≈ 13.7 µM), the MIC50 [32] was 16 µg/mL (≈ 27.3 µM) and the MIC90 [32] was 32 µg/mL (≈ 54.6 µM). The MIC [14] was 6 µg/mL (≈ 10.2 µM), the MIC [15] was 8 µg/mL (≈ 13.7 µM) and the MIC [16] was 2 µg/mL (≈ 3.41 µM). It also gave an MIC [33] of 4 µg/mL, an MIC [34] of 4 µg/mL and an MIC [35] of 4 µg/mL. For the same molecule, the MIC [36] was 6 µg/mL, the MIC [37] was 4 µg/mL and the MIC [17] was 8 µg/mL (≈ 13.7 µM).
In the case of `C[C@]1(Cn2ccnn2)[C@H](C(=O)O)N2C(=O)C[C@H]2S1(=O)=O` [TAZOBACTAM], the MIC [1] is reported as 4 µg/mL (≈ 13.3 µM), the MIC [2] is reported as 4 µg/mL (≈ 13.3 µM) and the MIC [3] is reported as 4 µg/mL (≈ 13.3 µM). It also gave an MIC [4] of 4 µg/mL (≈ 13.3 µM), an MIC [5] of 4 µg/mL (≈ 13.3 µM) and an MIC [6] of 4 µg/mL (≈ 13.3 µM). For the same molecule, the MIC [7] was 4 µg/mL (≈ 13.3 µM), the MIC [8] was 4 µg/mL (≈ 13.3 µM) and the MIC [9] was 4 µg/mL (≈ 13.3 µM). The MIC [10] was 4 µg/mL (≈ 13.3 µM), the MIC [11] was 4 µg/mL (≈ 13.3 µM) and the MIC [12] was 4 µg/mL (≈ 13.3 µM). It also gave an MIC [13] of 4 µg/mL (≈ 13.3 µM), an MIC [14] of 4 µg/mL (≈ 13.3 µM) and an MIC [15] of 4 µg/mL (≈ 13.3 µM). It also gave an MIC [16] of 4 µg/mL (≈ 13.3 µM) and an MIC [17] of 4 µg/mL (≈ 13.3 µM).
